From patent US7601686B2, “Hepatitis C virus inhibitors” (Bristol-Myers Squibb Company, priority 2005, dated 2009)
Where two headings read alike, the source gives them in different places.

Legend:
[1] = test system: HCV replicon in HUH-7 cells; assay: HCV replicon FRET assay; assay type: cell-based, Hepatitis C virus (strain 1b); details: Hepatitis C virus
Text: Generation of HCV Replicon
An HCV replicon whole cell system was established as described by Lohmann V, Korner F, Koch J, Herian U, Theilmann L, Bartenschlager R., Science 285(5424):110-3 (1999). This system enabled us to evaluate the effects of our HCV Protease compounds on HCV RNA replication. Briefly, using the HCV strain 1b sequence described in the Lohmann paper (Assession number:AJ238799), an HCV cDNA was synthesized by Operon Technologies, Inc. (Alameda, Calif.), and the full-length replicon was then assembled in plasmid pGem9zf(+) (Promega, Madison, Wis.) using standard molecular biology techniques. The replicon consists of (i) the HCV 5′ UTR fused to the first 12 amino acids of the capsid protein, (ii) the neomycin phosphotransferase gene (neo), (iii) the IRES from encephalomyocarditis virus (EMCV), and (iv) HCV NS3 to NS5B genes and the HCV 3′ UTR. Plasmid DNAs were linearized with ScaI and RNA transcripts were synthesized in vitro using the T7 MegaScript transcription kit (Ambion, Austin, Tex.) according to manufacturer's directions. In vitro transcripts of the cDNA were transfected into the human hepatoma cell line, HUH-7. […] Resulting cell lines were characterized for positive and negative strand RNA production and protein production over time.
The HCV replicon FRET assay was developed to monitor the inhibitory effects of compounds described in the disclosure on HCV viral replication. HUH-7 cells, constitutively expressing the HCV replicon, were grown in Dulbecco's Modified Eagle Media (DMEM) (Gibco-BRL) containing 10% Fetal calf serum (FCS) (Sigma) and 1 mg/mL G418 (Gibco-BRL). Cells were seeded the night before (1.5×10^4 cells/well) in 96-well tissue-culture sterile plates. Compound and no compound controls were prepared in DMEM containing 4% FCS, 1:100 Penicillin/Streptomysin (Gibco-BRL), 1:100 L-glutamine and 5% DMSO in the dilution plate (0.5% DMSO final concentration in the assay). Compound/DMSO mixes were added to the cells and incubated for 4 days at 37° C. After 4 days, cells were first assessed for cytotoxicity using alamar Blue (Trek Diagnotstic Systems) for a CC50 reading. The toxicity of compound (CC50) was determined by adding 1/10th volume of alamar Blue to the media incubating the cells. After 4 h, the fluorescence signal from each well was read, with an excitation wavelength at 530 nm and an emission wavelength of 580 nm, using the Cytofluor Series 4000 (Perspective Biosystems). Plates were then rinsed thoroughly with Phosphate-Buffered Saline (PBS) (3 times 150 μl).

[2] = biological target: T1, HCV NS3/4A protease complex, BMS strain (UniProt P27958, species not given/STRAIN_BMS); assay: FRET peptide assay to monitor HCV NS3/4A proteolytic activity (BMS strain); assay type: biochemical, Hepatitis C virus (genotype 1a)
T1 construct: DNA encoding the recombinant HCV NS3/4A protease complex (amino acids 1027 to 1711) for these strains [H77 and J4L6S]; fused on or other part: For the H77 and J4L6S constructs, a three-lysine solubilising tail at the NS4A C-terminus and a Ni-NTA-purifiable tag from pET21b
Text: Generation of Recombinant HCV NS3/4A Protease Complex
HCV NS3 protease complexes, derived from the BMS strain, H77 strain or J4L6S strain, were generated, as described below. These purified recombinant proteins were generated for use in a homogeneous assay (see below) to provide an indication of how effective compounds of the present disclosure would be in inhibiting HCV NS3 proteolytic activity.
Serum from an HCV-infected patient was obtained from Dr. T. Wright, San Francisco Hospital. An engineered full-length cDNA (compliment deoxyribonucleic acid) template of the HCV genome (BMS strain) was constructed from DNA fragments obtained by reverse transcription-PCR (RT-PCR) of serum RNA (ribonucleic acid) and using primers selected on the basis of homology between other genotype 1a strains. From the determination of the entire genome sequence, a genotype 1a was assigned to the HCV isolate according to the classification of Simmonds et al. (See P Simmonds, K A Rose, S Graham, S W Chan, F McOmish, B C Dow, E A Follett, P L Yap and H Marsden, J. Clin. Microbiol., 31(6), 1493-1503 (1993)). […] The infectious clones, H77 (1a genotype) and J4L6S (1b genotype) were obtained from R. Purcell (NIH) and the sequences are published in Genbank (AAB67036, see Yanagi, M., Purcell, R. H., Emerson, S. U. and Bukh, J. Proc. Natl. Acad. Sci. U.S.A. 94(16), 8738-8743 (1997); AF054247, see Yanagi, M., St Claire, M., Shapiro, M., Emerson, S. U., Purcell, R. H. and Bukh, J, Virology 244 (1), 161-172. (1998)).
The H77 and J4L6S strains were used for production of recombinant NS3/4A protease complexes. DNA encoding the recombinant HCV NS3/4A protease complex (amino acids 1027 to 1711) for these strains were manipulated as described by P. Gallinari et al. (see Gallinari P, Paolini C, Brennan D, Nardi C, Steinkuhler C, De Francesco R. Biochemistry. 38(17):5620-32, (1999)). Briefly, a three-lysine solubilizing tail was added at the 3′-end of the NS4A coding region. The cysteine in the P1 position of the NS4A-NS4B cleavage site (amino acid 1711) was changed to a glycine to avoid the proteolytic cleavage of the lysine tag. Furthermore, a cysteine to serine mutation was introduced by PCR at amino acid position 1454 to prevent the autolytic cleavage in the NS3 helicase domain. The variant DNA fragment was cloned in the pET21b bacterial expression vector (Novagen) and the NS3/4A complex was expressed in Escherichia coli strain BL21 (DE3) (Invitrogen) following the protocol described by P. Gallinari et al. (see Gallinari P, Brennan D, Nardi C, Brunetti M, Tomei L, Steinkuhler C, De Francesco R., J. Virol. 72(8):6758-69 (1998)) with modifications. Briefly, the NS3/4A protease complex expression was induced with 0.5 millimolar (mM) Isopropyl β-D-1-thiogalactopyranoside (IPTG) for 22 hours (h) at 20° C. A typical fermentation (1 Liter (L)) yielded approximately 10 grams (g) of wet cell paste. The cells were resuspended in lysis buffer (10 mL/g) consisting of 25 mM N-(2-Hydroxyethyl)piperazine-N′-(2-Ethane Sulfonic acid) (HEPES), pH 7.5, 20% glycerol, 500 mM Sodium Chloride (NaCl), 0.5% Triton X-100, 1 microgram/milliliter (“μg/mL”) lysozyme, 5 mM Magnesium Chloride (MgCl2), 1 μg/mL DnaseI, 5 mM β-Mercaptoethanol (βME), Protease inhibitor—Ethylenediamine Tetraacetic acid (EDTA) free (Roche), homogenized and incubated for 20 minutes (min) at 4° C. The homogenate was sonicated and clarified by ultra-centrifugation at 235000 g for 1 h at 4° C. Imidazole was added to the supernatant to a final concentration of 15 mM and the pH adjusted to 8.0. The crude protein extract was loaded on a Nickel—Nitrilotriacetic acid (Ni-NTA) column pre-equilibrated with buffer B (25 mM HEPES, pH 8.0, 20% glycerol, 500 mM NaCl, 0.5% Triton X-100, 15 mM imidazole, 5 mM βME). The sample was loaded at a flow rate of 1 mL/min. The column was washed with 15 column volumes of buffer C (same as buffer B except with 0.2% Triton X-100). […]

[3] = HCV replicon cell assay, HUH-7, read-out: EC50 Range
[4] = NS3/4A BMS strain, enzyme assay; read-out: IC 50 Range
[5] = read-out: IC 50 Range; NS3/4A BMS strain, enzyme assay

T1 sequence (P27958 1027-1657, stated change not applied, one chain of several): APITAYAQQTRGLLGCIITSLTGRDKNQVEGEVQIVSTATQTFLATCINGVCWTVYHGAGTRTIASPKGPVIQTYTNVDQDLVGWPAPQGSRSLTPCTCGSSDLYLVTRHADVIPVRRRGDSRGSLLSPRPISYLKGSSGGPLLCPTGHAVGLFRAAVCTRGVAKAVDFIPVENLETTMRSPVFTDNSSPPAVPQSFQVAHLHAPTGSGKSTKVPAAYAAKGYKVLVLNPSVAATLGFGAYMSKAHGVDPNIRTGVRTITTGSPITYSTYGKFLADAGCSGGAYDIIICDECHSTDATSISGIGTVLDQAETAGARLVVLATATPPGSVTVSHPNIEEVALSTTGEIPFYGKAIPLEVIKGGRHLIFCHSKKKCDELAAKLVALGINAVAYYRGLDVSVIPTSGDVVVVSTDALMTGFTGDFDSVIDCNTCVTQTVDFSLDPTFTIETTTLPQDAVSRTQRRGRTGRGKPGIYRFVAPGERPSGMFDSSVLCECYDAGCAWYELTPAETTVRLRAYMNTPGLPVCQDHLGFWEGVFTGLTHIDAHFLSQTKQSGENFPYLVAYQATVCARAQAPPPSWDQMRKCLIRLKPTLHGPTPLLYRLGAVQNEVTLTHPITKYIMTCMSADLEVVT

SMILES | EC50 [1, 3] [µM] | IC50 [2, 4] [µM] | IC50 [2, 5] [µM] | EC50 ([1]; Huh-7, read-out: EC50 Range) [µM]
C=CC1CC1(NC(=O)[C@@H]1C[C@@H](NC(=O)c2c(OCC)ccc3ccccc23)CN1C(=O)[C@@H](NC(=O)CC1CC1)C(C)(C)C)C(=O)NS(=O)(=O)C1CC1 (some centres unmarked) [Compound 37] | > 15 | 0.15 to 15 | – | –
C=CC1CC1(NC(=O)[C@@H]1C[C@@H](NC(=O)c2ccccc2-c2ccccc2)CN1C(=O)[C@@H](NC(=O)CC1CC1)C(C)(C)C)C(=O)NS(=O)(=O)C1CC1 (some centres unmarked) [Compound 38] | > 15 | 0.15 to 15 | – | –
C=CC1CC1(NC(=O)[C@@H]1C[C@@H](NC(=O)c2coc3ccccc3c2=O)CN1C(=O)[C@@H](NC(=O)CC1CC1)C(C)(C)C)C(=O)NS(=O)(=O)C1CC1 (some centres unmarked) [Compound 39] | 0.15 to 15 | < 0.15 | – | –
C=CC1CC1(NC(=O)[C@@H]1C[C@@H](NC(=O)c2cn(CC)c3cc4c(cc3c2=O)OCO4)CN1C(=O)[C@@H](NC(=O)CC1CC1)C(C)(C)C)C(=O)NS(=O)(=O)C1CC1 (some centres unmarked) [Compound 40] | > 15 | – | < 0.15 | –
C=CC1CC1(NC(=O)[C@@H]1C[C@@H](NC(=O)c2ccc3cnccc3n2)CN1C(=O)[C@@H](NC(=O)CC1CC1)C(C)(C)C)C(=O)NS(=O)(=O)C1CC1 (some centres unmarked) [Compound 41] | > 15 | < 0.15 | – | –
C=CC1CC1(NC(=O)[C@@H]1C[C@@H](NC(=O)Nc2cccc3ccccc23)CN1C(=O)[C@@H](NC(=O)OC(C)(C)C)C(C)(C)C)C(=O)NS(=O)(=O)C1CC1 (some centres unmarked) [Compound 43] | > 15 | – | < 0.15 | –
C=CC1CC1(NC(=O)[C@@H]1C[C@@H](NC(=O)NCc2ccccc2)CN1C(=O)[C@@H](NC(=O)OC(C)(C)C)C(C)(C)C)C(=O)NS(=O)(=O)C1CC1 (some centres unmarked) [Compound 44] | > 15 | 0.15 to 15 | – | –
C=CC1CC1(NC(=O)[C@@H]1C[C@@H](NC(=S)NCc2ccccc2)CN1C(=O)[C@@H](NC(=O)OC(C)(C)C)C(C)(C)C)C(=O)NS(=O)(=O)C1CC1 (some centres unmarked) [Compound 45] | > 15 | – | 0.15 to 15 | –
C=CC1CC1(NC(=O)[C@@H]1C[C@@H](NCc2ccnc3ccccc23)CN1C(=O)[C@@H](NC(=O)OC(C)(C)C)C(C)(C)C)C(=O)NS(=O)(=O)C1CC1 (some centres unmarked) [Compound 47] | > 15 | < 0.15 | – | –
C=CC1CC1(NC(=O)[C@@H]1C[C@@H](NS(=O)(=O)c2cccc3ccccc23)CN1C(=O)[C@@H](NC(=O)OC(C)(C)C)C(C)(C)C)C(=O)NS(=O)(=O)C1CC1 (some centres unmarked) [Compound 48] | > 15 | 0.15 to 15 | – | –
C=CC1CC1(NC(=O)[C@@H]1C[C@@H](NS(=O)(=O)c2cccc3c(N(C)C)cccc23)CN1C(=O)[C@@H](NC(=O)OC(C)(C)C)C(C)(C)C)C(=O)NS(=O)(=O)C1CC1 (some centres unmarked) [Compound 49] | > 15 | 0.15 to 15 | – | –
C=CC1CC1(NC(=O)[C@@H]1C[C@@H](NC(=O)n2ccc3cccnc32)CN1C(=O)[C@@H](NC(=O)CC1CC1)C(C)(C)C)C(=O)NS(=O)(=O)C1CC1 (some centres unmarked) [Compound 50] | 0.15 to 15 | < 0.15 | – | –
C=CC1CC1(NC(=O)[C@@H]1C[C@@H](NC(=O)n2ccc3ccccc32)CN1C(=O)[C@@H](NC(=O)CC1CC1)C(C)(C)C)C(=O)NS(=O)(=O)C1CC1 (some centres unmarked) [Compound 51] | – | – | < 0.15 | 0.15 to 15
C=CC1CC1(NC(=O)[C@@H]1C[C@@H](NC(=O)OC2=NCc3ccccc32)CN1C(=O)[C@@H](NC(=O)CC1CC1)C(C)(C)C)C(=O)NS(=O)(=O)C1CC1 (some centres unmarked) [Compound 52] | 0.15 to 15 | – | < 0.15 | –
C=CC1CC1(NC(=O)[C@@H]1C[C@@H](NC(=O)n2c(=O)oc3ccccc32)CN1C(=O)[C@@H](NC(=O)CC1CC1)C(C)(C)C)C(=O)NS(=O)(=O)C1CC1 (some centres unmarked) [Compound 53] | > 15 | – | < 0.15 | –
C=CC1CC1(NC(=O)[C@@H]1C[C@@H](N2C(=O)c3ccccc3C2=O)CN1C(=O)[C@@H](NC(=O)CC1CC1)C(C)(C)C)C(=O)NS(=O)(=O)C1CC1 (some centres unmarked) [Compound 58] | > 15 | – | 0.15 to 15 | –
